Data taken from patent publication US11883526B2 (priority 2019, dated 2024).

Tests used:
[1] = tested on: subjects with MDD at imminent risk for suicide; test: Beck Hopelessness Scale, BHS ([…]2001); type: in vivo, human; details: 84 mg, ANCOVA LOCF, ITT
Excerpt: The BHS is a self-reported measure to assess one's level of negative expectations or pessimism regarding the future. It consists of 20 true-false items that examine the respondent's attitude over the past week by either endorsing a pessimistic statement or denying an optimistic statement. For every statement, each response is assigned a score of 0 or 1. The total BHS score is a sum of item responses and ranges from 0 to 20, with a higher score representing a higher level of hopelessness.

[2] = tested on: patients with treatment-resistant depression (TRD); test: BPRS positive symptom subscale (Example 7); parameters: species or system human; details: in vivo
Description: Adverse events were monitored throughout the study. Other safety assessments (i.e., laboratory tests, vital signs, physical examination) were performed at pre-specified time points. Vital signs, the Clinician Administered Dissociative States Scale (CADSS; Bremner, “Measurement of dissociative states with the clinician-administered dissociative states scale (CADSS)”, J. Traumatic Stress, 1998, 11(1):125-136), and the 4-item positive symptom subscale from the Brief Psychiatric Rating Scale (BPRS; Overall, “The Brief Psychiatric Rating Scale. Psychological Reports”, 1962, 10:799-812) were assessed pre-dose, at 40 minutes, and 2 hours post-dose.

[3] = Excerpt: This example provides an LC-MS/MS method for the determination of ketamine and norketamine in sodium heparin human plasma using ketamine-d4 and norketamine-d4 as the respective internal standards (IS).

SMILES: CN[C@]1(c2ccccc2Cl)CCCCC1=O [esketamine, (S)-2-(2-chlorophenyl)-2-(methylamino)cyclohexanone]
- BHS total score change from baseline, Diff. of LS Means (minus Placebo) ([1]; Day 1(DB): 4 H): −1.5
- BHS total score change from baseline, Diff. of LS Means (minus Placebo) ([1]; End Point(DB)): −2.3
- symptoms suggestive of psychosis (BPRS-positive assessment) [2]: No participant manifested symptoms suggestive of psychosis
- QC sample freeze/thaw stability ([3]; freeze (−20° C.)/thaw (room temperature)): 3 freeze (−20° C.)/thaw (room temperature) cycles
- QC sample long-term storage stability ([3]; human plasma QC sample at −20° C.): 707 days at −20 °C
- QC sample bench-top stability ([3]; human plasma QC sample, room temperature): 18 hours at room temperature
